Assay results from ChEMBL document CHEMBL1201862, “PubChem BioAssay data set” (2004).
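96-well plates; 48 h exposure; 5 concentrations. Endpoints by linear interpolation between flanking doses. Not reached: highest tested concentration assigned. GI50 marks 50% less growth.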 Activity calls are given as the source filed them. No stated cut-off is given here; in the data, active = GI50 up to about 1.1 µM and inactive = higher.

Columns and labels:
Assay in all cases: NCI anticancer screen, dose series, 48 h
[1] = system: SW-620
[2] = system: HL-60
[3] = system: SF-539
[4] = system: NCI-H226
[5] = system: ACHN
[6] = system: HCC 2998
[7] = system: A549
[8] = system: MDA-MB-435
[9] = system: OVCAR-3
[10] = system: MDA-MB-231
[11] = system: NCI-H23
[12] = system: SK-MEL-2
[13] = system: UO-31
[14] = system: SN12C
[15] = system: IGROV-1
[16] = system: TK-10
[17] = system: SF-295
[18] = system: CCRF-CEM
[19] = system: OVCAR-5
[20] = system: SK-MEL-5
[21] = system: A498
[22] = system: NCI/ADR-RES
[23] = system: HT-29
[24] = system: 786-0
[25] = system: HOP-62
[26] = system: RPMI-8226
[27] = system: PC-3
[28] = system: OVCAR-8
[29] = system: EKVX
[30] = system: COLO 205
[31] = system: SR
[32] = system: SNB-19
[33] = system: LOX IMVI
[34] = system: K562
[35] = system: UACC-62
[36] = system: M14
[37] = system: MOLT-4
[38] = system: U-251
[39] = system: SK-OV-3
[40] = system: SK-MEL-28
[41] = system: MDA-N
[42] = system: DU-145
[43] = system: HOP-92
[44] = system: KM12
[45] = system: MCF7
[46] = system: CAKI-1
[47] = system: HCT-15
[48] = system: UACC-257
[49] = system: OVCAR-4
[50] = system: BT-549
[51] = system: NCI-H460
[52] = system: HCT-116
[53] = system: RXF 393
[54] = system: SNB-75
[55] = system: Malme-3M
[56] = system: SF-268
[57] = system: NCI-H522
[58] = system: Hs-578T

## CCOC(=O)CC[C@H](NC(=O)N[C@H](C)c1ccccc1)C(=O)OCC
[1]
  GI50: > 100 µM (inactive)
[2]
  GI50: > 100 µM (inactive)
[3]
  GI50: 14.7 µM (inactive)
[4]
  GI50: > 100 µM (inactive)
[5]
  GI50: 53.5 µM (inactive)
[6]
  GI50: 25.9 µM (inactive)
[7]
  GI50: > 100 µM (inactive)
[8]
  GI50: 27.9 µM (inactive)
[9]
  GI50: 18 µM (inactive)
[10]
  GI50: 28.6 µM (inactive)
[11]
  GI50: 89.1 µM (inactive)
[12]
  GI50: 23.4 µM (inactive)
[13]
  GI50: 29.2 µM (inactive)
[14]
  GI50: 40.6 µM (inactive)
[15]
  GI50: 20.8 µM (inactive)
[16]
  GI50: 42.8 µM (inactive)
[17]
  GI50: > 100 µM (inactive)
[18]
  GI50: 22.6 µM (inactive)
[19]
  GI50: > 100 µM (inactive)
[20]
  GI50: 37 µM (inactive)
[21]
  GI50: > 100 µM (inactive)
[22]
  GI50: 22.8 µM (inactive)
[23]
  GI50: > 100 µM (inactive)
[24]
  GI50: 37.9 µM (inactive)
[25]
  GI50: > 100 µM (inactive)
[26]
  GI50: 41 µM (inactive)
[27]
  GI50: 84.7 µM (inactive)
[28]
  GI50: > 100 µM (inactive)
[29]
  GI50: > 100 µM (inactive)
[30]
  GI50: 18.7 µM (inactive)
[31]
  GI50: 84.9 µM (inactive)
[32]
  GI50: > 100 µM (inactive)
[33]
  GI50: 55.7 µM (inactive)
[34]
  GI50: 36.1 µM (inactive)
[35]
  GI50: 16.1 µM (inactive)
[36]
  GI50: 14.8 µM (inactive)
[37]
  GI50: 20.1 µM (inactive)
[38]
  GI50: 39.8 µM (inactive)
[39]
  GI50: > 100 µM (inactive)
[40]
  GI50: 20.9 µM (inactive)
[41]
  GI50: 18.6 µM (inactive)
[42]
  GI50: 83.2 µM (inactive)
[43]
  GI50: 22 µM (inactive)
[44]
  GI50: 73.1 µM (inactive)
[45]
  GI50: 32.7 µM (inactive)
[46]
  GI50: > 100 µM (inactive)
[47]
  GI50: > 100 µM
[48]
  GI50: 18.3 µM (inactive)
[49]
  GI50: 52.1 µM (inactive)
[50]
  GI50: > 100 µM (inactive)
[51]
  GI50: > 100 µM (inactive)
[52]
  GI50: > 100 µM (inactive)

## CC1C(=O)C(C)C(c2ccccc2)N(C)C1c1ccccc1 (configuration not stated)
[2]
  GI50: 20.7 µM (inactive)
[19]
  GI50: 50.9 µM (inactive)
[23]
  GI50: 28.6 µM (inactive)
[26]
  GI50: 21.8 µM (inactive)
[31]
  GI50: 20.2 µM (inactive)
[37]
  GI50: 19.9 µM (inactive)

## O=C(OCc1ccccc1)C(Cc1ccc(OCc2ccccc2)cn1)NC(=O)C(F)(F)F (configuration not stated)
[1]
  GI50: > 100 µM (inactive)
[53]
  GI50: > 100 µM (inactive)
[2]
  GI50: 56.2 µM (inactive)
[3]
  GI50: > 100 µM (inactive)
[54]
  GI50: 3.01 µM (inactive)
[4]
  GI50: > 100 µM (inactive)
[5]
  GI50: > 100 µM (inactive)
[6]
  GI50: > 100 µM (inactive)
[7]
  GI50: 62.8 µM (inactive)
[8]
  GI50: 92.9 µM (inactive)
[9]
  GI50: 71.3 µM (inactive)
[10]
  GI50: > 100 µM (inactive)
[11]
  GI50: 86.9 µM (inactive)
[13]
  GI50: 65.5 µM (inactive)
[14]
  GI50: > 100 µM (inactive)
[15]
  GI50: > 100 µM (inactive)
[16]
  GI50: > 100 µM (inactive)
[17]
  GI50: > 100 µM (inactive)
[18]
  GI50: > 10 µM (inactive)
[19]
  GI50: > 100 µM (inactive)
[55]
  GI50: > 100 µM (inactive)
[20]
  GI50: 35.4 µM (inactive)
[21]
  GI50: > 100 µM (inactive)
[22]
  GI50: > 100 µM (inactive)
[23]
  GI50: 57.9 µM (inactive)
[24]
  GI50: > 100 µM (inactive)
[25]
  GI50: > 100 µM (inactive)
[26]
  GI50: 92.5 µM (inactive)
[27]
  GI50: > 100 µM (inactive)
[28]
  GI50: > 100 µM (inactive)
[56]
  GI50: 98.2 µM (inactive)
[29]
  GI50: > 100 µM (inactive)
[30]
  GI50: 27.4 µM (inactive)
[31]
  GI50: 86.9 µM (inactive)
[32]
  GI50: > 100 µM (inactive)
[33]
  GI50: 92.3 µM (inactive)
[57]
  GI50: 79.8 µM (inactive)
[34]
  GI50: 42.8 µM (inactive)
[37]
  GI50: 33.7 µM (inactive)
[38]
  GI50: 72.3 µM (inactive)
[58]
  GI50: > 100 µM (inactive)
[40]
  GI50: > 100 µM (inactive)
[41]
  GI50: > 100 µM (inactive)
[42]
  GI50: > 100 µM (inactive)
[43]
  GI50: > 100 µM (inactive)
[44]
  GI50: > 100 µM (inactive)
[45]
  GI50: > 10 µM (inactive)
[46]
  GI50: > 100 µM (inactive)
[47]
  GI50: 46.3 µM
[48]
  GI50: > 100 µM (inactive)
[49]
  GI50: > 100 µM (inactive)
[50]
  GI50: > 100 µM (inactive)
[51]
  GI50: > 100 µM (inactive)
[52]
  GI50: > 100 µM (inactive)
